Values of other authors, collected in US8858979B1, “Service induced byproducts for localized drug delivery in orthopaedic implants” (Clemson University, priority 2011, dated 2014).

System: cell proliferation
Settings: reported data, estimated

NCCCC(O)(P(=O)([O-])O)P(=O)(O)O.[Na+] [alendronate, alendronate sodium]
concentration that can inhibit cell proliferation: about 10^−4 M
